Key:
HT29 (Colon cancer) = assay: NCI-60 screen (SRB, 48 h); conditions: Homo sapiens
CCRF-CEM (Leukemia) = assay: NCI-60 screen (SRB, 48 h); conditions: Homo sapiens
HOP-62 (NSC lung cancer) = assay: NCI-60 screen (SRB, 48 h); conditions: Homo sapiens
SW-620 (Colon cancer) = assay: NCI-60 screen (SRB, 48 h); conditions: Homo sapiens
[1] = test system: NCI-H522 (NSC lung cancer); assay: NCI-60 screen (SRB, 48 h); conditions: Homo sapiens
[2] = test system: A549/ATCC (NSC lung cancer); assay: NCI-60 screen (SRB, 48 h); conditions: Homo sapiens
Ovarian Cancer subpanel = assay: NCI-60 screen, subpanel; conditions: Homo sapiens
TK-10 (Renal cancer) = assay: NCI-60 screen (SRB, 48 h); conditions: Homo sapiens
T-47D (Breast cancer) = assay: NCI-60 screen (SRB, 48 h); conditions: Homo sapiens, T47D
MCF-7 (breast carcinoma) = assay: SRB cytotoxicity assay, 72 h; type: cell-based, human; conditions: Homo sapiens, MCF7; MCF-7, 72 h, cut-off 30 µM; read-out: EC50
Description: (§1) The cytotoxicity of compounds 1–20 was evaluated by means of a colorimetric sulforhodamine B (SRB) assay. For all compounds, the EC50 values were determined for the human tumor cell lines A375 (malignant melanoma), HT29 (colorectal carcinoma), MCF-7 (breast carcinoma), A2780 (ovarian carcinoma), FaDu (hypopharyngeal carcinoma), and NIH 3T3 (non-malignant mouse fibroblasts).
(§2) In short, exponentially growing cells were seeded into 96-well plates on day 0 at the appropriate cell densities to prevent confluence of the cells during the period of experiment. After 24 h, the cells were treated with serial dilutions of the compounds (0–30 µM) for 72 h. The final concentration of DMSO never exceeded 0.5%, which was non-toxic to the cells. After a 72 h treatment, the supernatant medium from the 96-well plates was discarded, and the cells were fixed with 10% TCA. For a thorough fixation, the plates were allowed to rest at 4 °C. After fixation, the cells were washed in a strip washer. The washing was done four times with water using alternate dispensing and aspiration procedures. The plates were then dyed with 100 µL of 0.4% SRB for about 20 min. After dying, the plates were washed with 1% acetic acid to remove the excess of the dye and allowed to air-dry overnight. Tris base solution (200 µL, 10 mM) was added to each well and absorbance was measured at λ = 570 nm (using a 96 well plate reader, Tecan Spectra, Crailsheim, Germany). The percentages of surviving cells relative to untreated controls were determined.

[3] = test system: FaDu (hypopharyngeal carcinoma); assay: SRB cytotoxicity assay, 72 h; type: cell-based, human; conditions: Homo sapiens, cut-off 30 µM, read-out: EC50
Description: as §1, §2

[4] = test system: HT29 (colorectal carcinoma); assay: SRB cytotoxicity assay, 72 h; type: cell-based, human; conditions: Homo sapiens, HT-29; HT29, 72 h, cut-off 30 µM; read-out: EC50
Description: as §1, §2

[5] = test system: A375 (malignant melanoma); assay: SRB cytotoxicity assay, 72 h; type: cell-based, human; conditions: Homo sapiens, A-375, 72 h, A375, 72 h, cut-off 30 µM; read-out: EC50
Description: as §1, §2

[6] = test system: A2780 (ovarian carcinoma); assay: SRB cytotoxicity assay, 72 h; type: cell-based, human; conditions: Homo sapiens; A2780, 72 h, cut-off 30 µM; read-out: EC50
Description: as §1, §2

HCT-116 (Colon cancer) = assay: NCI-60 screen (SRB, 48 h); conditions: Homo sapiens
[7] = test system: NIH 3T3 (non-malignant mouse fibroblasts); assay: SRB cytotoxicity assay, 72 h; type: cell-based; conditions: Mus musculus, NIH3T3; NIH 3T3, 72 h, cut-off 30 µM; read-out: EC50
Description: as §1, §2

Melanoma subpanel = assay: NCI-60 screen, subpanel; conditions: Homo sapiens
SF-268 (CNS cancer) = assay: NCI-60 screen (SRB, 48 h); conditions: Homo sapiens
A498 (Renal cancer) = assay: NCI-60 screen (SRB, 48 h); conditions: Homo sapiens
786-0 (Renal cancer) = assay: NCI-60 screen (SRB, 48 h); conditions: Homo sapiens
UACC-62 (Melanoma) = assay: NCI-60 screen (SRB, 48 h); conditions: Homo sapiens
SNB-75 (CNS cancer) = assay: NCI-60 screen (SRB, 48 h)
ACHN (Renal cancer) = assay: NCI-60 screen (SRB, 48 h)
DU-145 (Prostate cancer) = assay: NCI-60 screen (SRB, 48 h); conditions: Homo sapiens

CC1(C)NCCC[C@]2(C)[C@H]3C=CC4=C5C[C@@](C)(CO)CC[C@]5(C)CC[C@@]4(C)[C@]3(C)CC[C@@H]12 [Compound 6, azepano-glycyrrhetol-diene]
GI50 (HT29 (Colon cancer); HT-29): 3.25 µM
IC (TGI) (HT29 (Colon cancer); HT-29, 48 h, read-out: TGI): 13.8 µM
CC50 (HT29 (Colon cancer); HT-29, read-out: LC50): 41.8 µM
GI50 (CCRF-CEM (Leukemia)): 3.52 µM
IC (TGI) (CCRF-CEM (Leukemia); 48 h, read-out: TGI): 14.5 µM
CC50 (CCRF-CEM (Leukemia); read-out: LC50): 65.3 µM
GI50 (HOP-62 (NSC lung cancer); HOP-62): 2.3 µM
IC (TGI) (HOP-62 (NSC lung cancer); HOP-62, 48 h, read-out: TGI): 5.16 µM
CC50 (HOP-62 (NSC lung cancer); HOP-62, read-out: LC50): 16.7 µM
GI50 (SW-620 (Colon cancer); SW-620): 5.76 µM
IC (TGI) (SW-620 (Colon cancer); SW-620, 48 h, read-out: TGI): 18.8 µM
CC50 (SW-620 (Colon cancer); SW-620, read-out: LC50): 47 µM
GI50 ([1]; NCI-H522): 2.38 µM
IC (TGI) ([1]; NCI-H522, 48 h, read-out: TGI): 7.31 µM
CC50 ([1]; NCI-H522, read-out: LC50): 31.7 µM
GI50 ([2]; A549): 1.89 µM
IC (TGI) ([2]; A549, 48 h, read-out: TGI): 3.71 µM
CC50 ([2]; A549, read-out: LC50): 7.31 µM
IC (TGI) (Ovarian Cancer subpanel; 48 h, read-out: TGI MG_MID): 15.4 µM
GI50 (Ovarian Cancer subpanel; read-out: GI50 MG_MID): 4.67 µM
CC50 (Ovarian Cancer subpanel; read-out: LC50 MG_MID): 41.9 µM
GI50 (TK-10 (Renal cancer); TK-10): 2.66 µM
IC (TGI) (TK-10 (Renal cancer); TK-10, 48 h, read-out: TGI): 7.15 µM
CC50 (TK-10 (Renal cancer); TK-10, read-out: LC50): 27.3 µM
GI50 (T-47D (Breast cancer)): 5.38 µM
IC (TGI) (T-47D (Breast cancer); 48 h, read-out: TGI): 20.9 µM
CC50 (T-47D (Breast cancer); read-out: LC50): 59.5 µM
EC50 (MCF-7 (breast carcinoma)): 7.1 ± 0.5 µM
EC50 [3]: 4.44 ± 0.6 µM
EC50 [4]: 4.84 ± 0.5 µM
EC50 [5]: 6.65 ± 0.3 µM
EC50 [6]: 3.93 ± 0.5 µM
GI50 (HCT-116 (Colon cancer); HCT-116): 2.73 µM
IC (TGI) (HCT-116 (Colon cancer); HCT-116, 48 h, read-out: TGI): 10.6 µM
CC50 (HCT-116 (Colon cancer); HCT-116, read-out: LC50): 52.9 µM
EC50 [7]: 11.7 ± 1.4 µM
IC (TGI) (Melanoma subpanel; 48 h, read-out: TGI MG_MID): 11.9 µM
GI50 (Melanoma subpanel; read-out: GI50 MG_MID): 3.61 µM
CC50 (Melanoma subpanel; read-out: LC50 MG_MID): 36 µM
GI50 (SF-268 (CNS cancer); SF-268): 3.27 µM
IC (TGI) (SF-268 (CNS cancer); SF-268, 48 h, read-out: TGI): 11.6 µM
CC50 (SF-268 (CNS cancer); SF-268, read-out: LC50): 49.6 µM
GI50 (A498 (Renal cancer); A498): 11.4 µM
IC (TGI) (A498 (Renal cancer); A498, 48 h, read-out: TGI): 24.5 µM
CC50 (A498 (Renal cancer); A498, read-out: LC50): 52.7 µM
GI50 (786-0 (Renal cancer); 786-0): 2.66 µM
IC (TGI) (786-0 (Renal cancer); 786-0, 48 h, read-out: TGI): 8.59 µM
CC50 (786-0 (Renal cancer); 786-0, read-out: LC50): 40.9 µM
GI50 (UACC-62 (Melanoma); UACC-62): 3.13 µM
IC (TGI) (UACC-62 (Melanoma); UACC-62, 48 h, read-out: TGI): 10.9 µM
CC50 (UACC-62 (Melanoma); UACC-62, read-out: LC50): 37 µM
GI50 (SNB-75 (CNS cancer); Homo sapiens, SNB-75): 3.43 µM
IC (TGI) (SNB-75 (CNS cancer); Homo sapiens, SNB-75, 48 h, read-out: TGI): 14.8 µM
CC50 (SNB-75 (CNS cancer); Homo sapiens, SNB-75, read-out: LC50): 46.5 µM
Growth % of the Most Sensitive Cell Lines (SNB-75 (CNS cancer); SNB-75, 1 dose 10 µM): −97.70%
Growth % of the Most Sensitive Cell Lines (ACHN (Renal cancer); 1 dose 10 µM): −95.35%
GI50 (ACHN (Renal cancer); Homo sapiens): 2.93 µM
IC (TGI) (ACHN (Renal cancer); Homo sapiens, 48 h, read-out: TGI): 9.56 µM
CC50 (ACHN (Renal cancer); Homo sapiens, read-out: LC50): 33 µM
GI50 (DU-145 (Prostate cancer); DU-145): 2.25 µM
IC (TGI) (DU-145 (Prostate cancer); DU-145, 48 h, read-out: TGI): 5.02 µM
CC50 (DU-145 (Prostate cancer); DU-145, read-out: LC50): 13.8 µM
